# Data: patent publication US10907159B2, “Methods of treating cancer by inhibition of DNA repair proteins using antisense based therapies” (SARISSA INC., priority 2015, dated 2021)
# Entries after “also recorded” stand apart in the source; their conditions may differ.
# Legend:
# [1] = system: HK-2 kidney proximal tubule epithelial cells; assay: Cell proliferation assay, ASO transfection then drug (cell counting); format: cell-based, human; details: FIG. 52
# Protocol: FIG. […] Proliferation was determined by cell counting 96 hours post-transfection (*p<0.05).
# Four hours post-transfection, cells were seeded into 6 well dishes in appropriate experimental groups. […] Ninety-six hours post transfection, cells were collected and counted (Coulter Particle Counter). Proliferation was determined based on initial cell density and calculated as a percentage of ASO+vehicle treated cells.
# [2] = system: EPT1 prostate epithelial cells; assay: Veliparib after BR1 pretreatment; format: cell-based; details: FIG. 37
# [3] = system: CAPAN-1 cells; assay: Cell proliferation assay, ASO and/or drug (cell counting); format: cell-based, human; details: CAPAN-1 with mutated, non-functional BRCA2; FIG. 52
# Protocol: A: BRCA2-wild type SKOV-3 cells (black bars), […] MCF-7 cells (white bars), and BRCA2-mutated CAPAN-1 cells (grey bars) were treated simultaneously but separately with BRCA2 ASO (20 nM). Due to differing growth medium requirements and to avoid fluorescent label-induced changes in drug sensitivity, cells were not co-cultured. They were treated independently, at the same time with the same materials. Ninety-six hours post-transfection, cells were counted and proliferation determined (% of proliferation after control ASO treatment).
# C: SKOV-3, MCF-7 and CAPAN-1 cells were treated with two different concentrations of olaparib for 96 hours. After drug treatment they were counted and proliferation was determined as a percent of that of vehicle-treated cells.
# Four hours post-transfection, cells were seeded into 6 well dishes in appropriate experimental groups. Twenty-four hours post transfection, cells were treated with olaparib (Selleckchem) at three concentrations. Ninety-six hours post transfection, cells were collected and counted (Coulter Particle Counter). Proliferation was determined based on initial cell density and calculated as a percentage of ASO+vehicle treated cells.
# [4] = system: A549b cells; assay: Proliferation of A549b cells after OLIGO/siRNA transfection (cell counting); format: cell-based, human
# Protocol: Cultured cell lines were maintained in minimum essential medium a with nucleosides plus 10% fetal bovine serum and penicillin (50 units/mL)/streptomycin (50 mg/L) (growth medium). Cultures were incubated in a humidified atmosphere of 5% CO2 at 37° C. Cultured cell lines were maintained and cytotoxicity assays conducted as described previously (3). Rapidly proliferating cells were utilized for establishing cultures of experimental cells, which were allowed to plate overnight in 25-cm^2 flasks prior to manipulation. An established cell line of non-small-cell lung carcinoma (NSCLC), A549b, which was propagated by serial dilution from a single cell of an A549 parent cell line, was used for the establishment of antisense activity of oligonucleotides. This cell line proliferates with a mean generation time of approximately 20 hours, and is capable of forming tumours in immunodeficient mice with a take rate of greater than 90%. Therefore, this cell line is a good model system that can be used in both in vitro and in vivo experiments to test the activity of OLIGOs.
# OLIGOs were introduced into cells with the use of Lipofectamine 2000 (LFA2K) (Invitrogen, Burlington, Ontario, Canada). OLIGOs were mixed with LFA2K at a ratio of 0.2 μg/ml per 10 nM OLIGO. The mixture was prepared at 11× the final concentration to which cells were exposed, so that 200 μL was added to 2 mL of medium in which cells were plated. As controls, cells were exposed to medium alone (no treatment), LFA2K alone at concentrations equivalent to those used in combination with OLIGOs (in some experiments only the maximum LFA2K concentration was used as a control), or OLIGO having no complementarity with any human mRNA. The OLIGO/LFA2K mixtures were then incubated at room temperature for 20 minutes, according to instructions supplied with the LFA2K, followed by addition of the OLIGOs to the cell medium. The OLIGO/LFA2K mix was then incubated (37° C.) on the cells for 4 hours, after which a second volume of medium was added. Cells were then incubated for 20 hours. Following this incubation, the OLIGO-containing medium was replaced with drug-free medium (i.e. medium without OLIGOs) and the cells were incubated for an additional 4 days. Following the 4-day incubation, the proliferation of the treated cells (fold-increase in cell number) was calculated as a percentage of that of control cells. Cell numbers were enumerated on an electronic particle counter (Beckman Coulter, Mississauga, ON). For the purpose of determining the anti-proliferative effect of antisense OLIGOs, the proliferation of cells treated with antisense OLIGOs was calculated as a percent of that of cells treated with an equivalent concentration of non-complementary control OLIGO (in this case OLIGO 32) mixed with an equivalent amount of LFA2K.
# OLIGO-containing medium was removed and replaced with fresh medium. Cells were incubated for 4 days, at which time cell number was counted. Proliferation was calculated as a percent of non-targeting OLIGO-treated controls.
# Cells were incubated for 4 days, at which time cell number was counted. Proliferation was calculated as a percent of controls.
# [5] = system: DU145 human prostate cancer cells; details: BR1 pretreatment; FIG. 37
# Protocol: Cells were treated for 4 hours with ASO, after which one volume of medium was added and cells were incubated for a further 20 hours. ASO-containing medium was removed and replaced with fresh medium. Cells were then incubated for 4 days and cell numbers assessed. Proliferation of BR1-treated cells was calculated as a percent of proliferation of non-targeting ASO-treated control cells. Initial cell density varied among cell lines.
# [6] = system: TS mRNA; assay: RT-qPCR of TS mRNA in A549 cells after OLIGO transfection; format: cell-based, human; details: 20 nM OLIGO, 24 hours post-transfection; FIG. 16
# Protocol: Briefly, A549 cells seeded at a density of 2.0×10^5 per flask were transfected with 20 nM of OLIGO specific for each target or control OLIGO using Lipofectamine 2000 as the transfection reagent. Twenty four hours post-transfection mRNA was extracted and reverse transcribed into cDNA. RT-qPCR was performed for target mRNA levels using TaqMan reagents according to established protocols.
# [7] = system: HN-5a and HN-5a/carbo-15a head and neck squamous carcinoma cells; assay: Cisplatin sensitivity after ASO transfection (cell counting, colony forming); format: cell-based, human; details: FIG. 51
# Protocol: HN-5a cells are parental, cisplatin-sensitive human head and neck squamous carcinoma cells, and HN-5a/carbo-10a and HN-5a/carbo-15a cells are cisplatin-resistant lines derived from HN-5a cells (Ferguson et al., Drug Metab. Dispos. 27:1399-1405, 1999). Cells were exposed to cisplatin and effects on proliferation were assessed 72 h after drug treatment. HN-5a cells (b) and HN-5a/carbo-15a cells (c) were transfected with control (black circles) or BRCA2 (white circles) ASO, treated with varying concentrations of cisplatin and then counted 96 h post-transfection. HN-5a cells (d) and […] cells (e) were transfected with control or BRCA2 ASO, treated with different concentrations of cisplatin for 6 h, and then re-plated at a density of 500 cells per well to determine colony forming ability. *Different from cells treated with control ASO using a Student's t-test (p<0.05).
substance,measurement,setting,value
"5′-guaucuCTTGACGTuccuua-3′ (GUAUCUCTTGACGTUCCUUA; gapmer, lower-case wings modified, type not given here) [BR1]",effect on antiproliferative activity of cisplatin,[1],no effect on the antiproliferative activity of cisplatin
same,enhancement of veliparib,[2],little or not at all
same,effect on antiproliferative activity of cisplatin,[3],no effect on the antiproliferative activity of cisplatin
same,anti-proliferative effect as single agent,"[4]; A549/A549b cells, 4 h transfection, counted after 4 d, vs non-targeting control OLIGO",inhibited proliferation on its own; also recorded: greater inhibition as a single agent; also recorded: inhibit proliferation of human non-small cell lung cancer A549 cells in a concentration-dependent manner
same,inhibit proliferation of A549b cells,"[4]; single agent, mixed with 0.2 μg/mL LFA2K, compared with control OLIGO 32, FIG. 1",over 50%
same,enhancement of veliparib,[5],enhances veliparib
same,effect on TS mRNA level,[6],no significant effect on TS mRNA
same,effect on acquired cisplatin resistance,[7],reverses acquired cisplatin resistance
